Measurements from patent US12378224B2 (Dong-A Socio Holdings Co., Ltd., priority 2016, dated 2025).

Legend:
human MER (528-end) = human MER (528-end) (Homo sapiens (Human), UniProt Q12866); assay: HTRF Kinase Activity Biochemical Assay (KinEASE-TK); conditions: 10 uM ATP
In short: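 Activity read-out is the HTRF ratio (665 nm over 620 nm emission, ×10,000; excitation 340 nm) after 1 h detection with 0.375 nM Eu3+-cryptate anti-TK antibody plus 0.062 uM SA-XL665. Preceding kinase step: human MER (528-end), biotinylated TK substrate, 1 h, room temperature.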

[1] = target: BCR fusion to kinase domain of MerTK (Ba/F3-MerTK) (Homo sapiens, UniProt Q12866); assay: In Cell TAM Kinase Assay Using BaF3 Cellular System; type: cell-based, murine; conditions: Ba/F3 BCR-kinase fusion proliferation, 72 hours, Cell Titer Glo; kinase not given; read-out: IC50
Text: Three Ba/F3 cell lines (a murine IL-3 dependent pro-B cell line) expressing BCR fusions to the kinase domains of either MerTK (Ba/F3-MerTK), Axl (Ba/F3-Axl), or Tyro3 (Ba/F3-Tyro3) were purchased from Advanced Cellular Dynamics. The IL-3 independence of all 3 cell lines was confirmed. After thawing, the 3 Ba/F3 cell lines were split and maintained in cell culture media, which consisted of RPMI-1640-HEPES (Thermo-Cat #22400-089) with 1× Glutamax (Thermo-Cat #35050-061) and 10% FBS (Sigma-Cat #F4135 (500 ml), at a cell density range of 0.05×10^6−1×10^6 cells/mL 4 days before used in the routine screen. Compound plates were prepared using Nunc™ white 384-well optical bottom plates (ThermoFisher, USA) with compound in 25 nL dimethyl sulfoxide in each well. For routine assays, each of the 3 Ba/F3 cell lines was seeded at 1,000 cells per well with 25 µL of cell culture media directly into 384-well compound plates and incubated for 72 hours. Cell proliferation was then measured by adding 25 μL of Cell Titer Glo 2.0 (Promega, USA). After incubating with Cell Titer Glo at room temperature for 30 mins, the luminescence intensity, which quantifies the cell viability, was measured using an Envision™ plate reader (PerkinElmer, USA). […] In the presence of IL-3, the proliferation of the Ba/F3-Tyro3 cells is no longer dependent on the Tyro3 kinase activity.

[2] = target: human c-MER catalytic domain (Homo sapiens (Human), UniProt Q12866); assay: TR-FRET Kinase Activity Biochemical Assay (LanthaScreen); conditions: 10 uM ATP, 1 hour, kinase not given
In short: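 Activity was quantified as the ratio of 495 nm to 520 nm emission (excitation 340 nm) in a LanthaScreen TR-FRET format. The enzyme was the human c-MER catalytic domain, and the substrate was fluorescein-poly-GT. Detection used 2 nM Tb anti-phosphotyrosine antibody for 30 min after termination with 10 mM EDTA.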

BCR fusion to kinase domain of MerTK (Ba/F3-MerTK), sequence (Q12866 21-999 limits assumed, stated change not applied): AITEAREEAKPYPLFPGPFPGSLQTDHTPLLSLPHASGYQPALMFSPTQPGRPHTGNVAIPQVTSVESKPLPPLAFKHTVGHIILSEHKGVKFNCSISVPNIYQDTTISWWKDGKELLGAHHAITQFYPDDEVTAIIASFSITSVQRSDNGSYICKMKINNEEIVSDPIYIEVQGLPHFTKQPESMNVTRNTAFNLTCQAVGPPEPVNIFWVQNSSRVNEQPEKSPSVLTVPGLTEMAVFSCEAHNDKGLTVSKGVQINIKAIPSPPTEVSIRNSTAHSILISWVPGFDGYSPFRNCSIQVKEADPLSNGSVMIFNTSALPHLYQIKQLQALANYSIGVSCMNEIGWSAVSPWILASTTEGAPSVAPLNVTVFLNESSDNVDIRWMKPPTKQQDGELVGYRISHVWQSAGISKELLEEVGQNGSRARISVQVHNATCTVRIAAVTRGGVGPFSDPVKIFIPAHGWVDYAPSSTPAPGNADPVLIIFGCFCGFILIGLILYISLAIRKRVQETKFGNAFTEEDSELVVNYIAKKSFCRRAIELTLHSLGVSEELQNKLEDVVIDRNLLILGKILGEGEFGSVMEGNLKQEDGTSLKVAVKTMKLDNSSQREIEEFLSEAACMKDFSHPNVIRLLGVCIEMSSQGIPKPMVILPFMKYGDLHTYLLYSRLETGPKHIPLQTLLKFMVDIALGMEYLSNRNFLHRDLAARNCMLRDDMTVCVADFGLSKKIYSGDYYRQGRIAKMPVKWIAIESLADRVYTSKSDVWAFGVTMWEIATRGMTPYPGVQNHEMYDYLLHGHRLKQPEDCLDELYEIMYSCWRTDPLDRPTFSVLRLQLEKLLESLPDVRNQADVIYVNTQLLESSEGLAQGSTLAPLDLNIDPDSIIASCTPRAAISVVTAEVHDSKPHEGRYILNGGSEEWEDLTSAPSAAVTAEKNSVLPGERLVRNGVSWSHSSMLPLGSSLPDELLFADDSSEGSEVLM
human MER (528-end), sequence (Q12866 528-999 limits assumed): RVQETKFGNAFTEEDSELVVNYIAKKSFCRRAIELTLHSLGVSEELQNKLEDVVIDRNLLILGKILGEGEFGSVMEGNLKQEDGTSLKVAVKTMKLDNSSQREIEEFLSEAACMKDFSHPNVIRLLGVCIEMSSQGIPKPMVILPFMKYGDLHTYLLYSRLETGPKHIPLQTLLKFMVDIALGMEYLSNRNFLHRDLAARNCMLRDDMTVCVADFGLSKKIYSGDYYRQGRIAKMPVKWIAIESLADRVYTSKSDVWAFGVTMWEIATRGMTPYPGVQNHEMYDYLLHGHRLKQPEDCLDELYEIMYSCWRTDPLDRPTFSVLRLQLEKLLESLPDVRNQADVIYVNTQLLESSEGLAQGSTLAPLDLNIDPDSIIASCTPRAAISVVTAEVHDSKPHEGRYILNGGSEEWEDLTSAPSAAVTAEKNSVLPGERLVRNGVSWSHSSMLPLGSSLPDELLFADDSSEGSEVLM
human c-MER catalytic domain, sequence (Q12866 587-858): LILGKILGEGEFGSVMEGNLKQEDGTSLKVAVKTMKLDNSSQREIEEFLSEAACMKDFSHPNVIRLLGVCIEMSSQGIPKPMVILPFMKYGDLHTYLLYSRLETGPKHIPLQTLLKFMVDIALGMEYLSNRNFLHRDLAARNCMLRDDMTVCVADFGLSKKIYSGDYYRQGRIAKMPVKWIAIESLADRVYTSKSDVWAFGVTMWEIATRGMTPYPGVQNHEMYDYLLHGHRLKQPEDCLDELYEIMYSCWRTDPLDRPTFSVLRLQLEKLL

Compound	IC50 (human MER (528-end))	IC50 [1]	IC50 [2]
Cn1cc(-c2cnc(N)c(C(=O)N[C@@H]3CCN(C(=O)OC4CCCC(c5ccccc5)C4)C3)c2)cn1 (stereo partly drawn) [Example 129, 3-phenylcyclohexyl (3R)-3-(2-amino-5-(1-methyl-1H-pyrazol-4-yl)nicotinamido)pyrrolidine-1-carboxylate]	> 1000 nM	100 to 500 nM	
Cn1cc(-c2cnc(N)c(C(=O)N[C@@H]3CCN(C(=O)c4ccc(-c5ccc(F)cc5F)cc4)C3)c2)cn1 [Example 365, (R)-2-amino-N-(1-(2′,4′-difluoro-[1,1′-biphenyl]-4-carbonyl)pyrrolidin-3-yl)-5-(1-methyl-1H-pyrazol-4-yl)nicotinamide]	10 to 100 nM	> 1000 nM	
Cn1cc(-c2cnc(N)c(C(=O)N[C@@H]3CCN(C(=O)c4ccc(-c5ccc(F)cc5Cl)cc4)C3)c2)cn1 [Example 366, (R)-2-amino-N-(1-(2′-chloro-4′-fluoro-[1,1′-biphenyl]-4-carbonyl)pyrrolidin-3-yl)-5-(1-methyl-1H-pyrazol-4-yl)nicotinamide]	10 to 100 nM	100 to 500 nM	
Cn1cc(-c2cnc(N)c(C(=O)N[C@@H]3CCN(C(=O)c4ccc(-c5ccccc5F)cc4)C3)c2)cn1 [Example 370, (R)-2-amino-N-(1-(2′-fluoro-[1,1′-biphenyl]-4-carbonyl)pyrrolidin-3-yl)-5-(1-methyl-1H-pyrazol-4-yl)nicotinamide]	10 to 100 nM	> 1000 nM	
Cn1cc(-c2cnc(N)c(C(=O)N[C@@H]3CCN(C(=O)c4ccc(-c5ccc(C=O)cc5)cc4)C3)c2)cn1 [Example 381, (R)-2-amino-N-(1-(4′-formyl-[1,1′-biphenyl]-4-carbonyl)pyrrolidin-3-yl)-5-(1-methyl-1H-pyrazol-4-yl)nicotinamide]	100 to 1000 nM	> 1000 nM	
Cn1cc(-c2cnc(N)c(C(=O)N[C@@H]3CCN(C(=O)c4ccc(-c5ccc(Oc6ccc(N)cc6)cc5)cc4)C3)c2)cn1 [Example 505, (R)-2-amino-N-(1-(4′-(4-aminophenoxy)-[1,1′-biphenyl]-4-carbonyl)pyrrolidin-3-yl)-5-(1-methyl-1H-pyrazol-4-yl)nicotinamide]	100 to 1000 nM	> 1000 nM	
Cc1cscc1-c1ccc(C(=O)N2CC[C@@H](NC(=O)c3cc(-c4cnn(C)c4)cnc3N)C2)cc1 [Example 523, (R)-2-amino-5-(1-methyl-1H-pyrazol-4-yl)-N-(1-(4-(4-methylthiophen-3-yl)benzoyl)pyrrolidin-3-yl)nicotinamide]	10 to 100 nM	500 to 1000 nM	
Cc1csc(-c2ccc(C(=O)N3CC[C@@H](NC(=O)c4cc(-c5cnn(C)c5)cnc4N)C3)cc2)c1 [Example 525, (R)-2-amino-5-(1-methyl-1H-pyrazol-4-yl)-N-(1-(4-(4-methylthiophen-2-yl)benzoyl)pyrrolidin-3-yl)nicotinamide]	10 to 100 nM	100 to 500 nM	
Cc1ccc(-c2ccc(C(=O)N3CC[C@@H](NC(=O)c4cc(-c5cnn(C)c5)cnc4N)C3)cc2)s1 [Example 526, (R)-2-amino-5-(1-methyl-1H-pyrazol-4-yl)-N-(1-(4-(5-methylthiophen-2-yl)benzoyl)pyrrolidin-3-yl)nicotinamide]	10 to 100 nM	> 1000 nM	
Cn1cc(-c2cnc(N)c(C(=O)N[C@@H]3CCN(C(=O)c4ccc(-c5ccc(Cl)s5)cc4)C3)c2)cn1 [Example 534, (R)-2-amino-N-(1-(4-(5-chlorothiophen-2-yl)benzoyl)pyrrolidin-3-yl)-5-(1-methyl-1H-pyrazol-4-yl)nicotinamide]	10 to 100 nM	> 1000 nM	
Cn1cc(-c2cnc(N)c(C(=O)N[C@@H]3CCN(C(=O)C(=O)c4ccccc4)C3)c2)cn1 [Example 546, (R)-2-amino-5-(1-methyl-1H-pyrazol-4-yl)-N-(1-(2-oxo-2-phenylacetyl)pyrrolidin-3-yl)nicotinamide]	> 1000 nM	> 1000 nM	
CC(C)(c1ccc(-c2cnc(N)c(C(=O)N[C@@H]3CCN(C(=O)c4ccc(-c5ccccc5)cc4)C3)c2)cc1)N1CCN(CCO)CC1 [Example 565, (R)—N -(1-([1,1′-biphenyl]-4-carbonyl)pyrrolidin-3-yl)-2-amino-5-(4-(2-(4-(2-hydroxyethyl)piperazin-1-yl)propan-2-yl)phenyl)nicotinamide]	10 to 100 nM	> 1000 nM	
Cn1cc(-c2cnc(N)c(C(=O)N[C@@H]3CCN(C(=O)c4ccc5cc(OCC6CCNCC6)ccc5c4)C3)c2)cn1 [Example 761]		> 1000 nM	
Cn1cc(-c2cnc3[nH]nc(N[C@@H]4CCN(C(=O)c5ccc(Oc6ccccc6)cc5)C4)c3c2)cn1 [Example 791, (R)-(3-((5-(1-methyl-1H-pyrazol-4-yl)-1H-pyrazolo[3,4-b]pyridin-3-yl)amino)pyrrolidin-1-yl)(4-phenoxyphenyl)methanone]			100 to 1000 nM
Cn1cc(-c2cnc3[nH]nc(N[C@@H]4CCN(C(=O)c5ccc(-c6ccc(OC7CCNCC7)cc6)cc5)C4)c3c2)cn1 [Example 792, (R)-(3-((5-(1-methyl-1H-pyrazol-4-yl)-1H-pyrazolo[3,4-b]pyridin-3-yl)amino)pyrrolidin-1-yl)(4′-(piperidin-4-yloxy)-[1,1′-biphenyl]-4-yl)methanone]			< 10 nM
Cn1cc(-c2cnc3[nH]nc(N[C@@H]4CCN(C(=O)c5ccc(-c6ccc(CN7CCOCC7)cc6)cc5)C4)c3c2)cn1 [Example 793, (R)-(3-((5-(1-methyl-1H-pyrazol-4-yl)-1H-pyrazolo[3,4-b]pyridin-3-yl)amino)pyrrolidin-1-yl)(4′-(morpholinomethyl)-[1,1′-biphenyl]-4-yl)methanone]			100 to 1000 nM
Cn1cc(-c2cnc(N)c(C(=O)N[C@@H]3CCN(C(=O)c4ccc(-c5ccc(C(C)(C)N)cc5)cc4)C3)c2)cn1 [Example 801, (R)-2-amino-N-(1-(4′-(2-aminopropan-2-yl)-[1,1′-biphenyl]-4-carbonyl)pyrrolidin-3-yl)-5-(1-methyl-1H-pyrazol-4-yl)nicotinamide]			100 to 1000 nM
Cn1cc(-c2cnc(N)c(C(=O)N[C@@H]3CCN(C(=O)c4ccc(-c5ccc(Nc6ccc(N)cc6)cc5)cc4)C3)c2)cn1 [Example 815, (R)-2-amino-N-(1-(4′-((4-aminophenyl)amino)-[1,1′-biphenyl]-4-carbonyl)pyrrolidin-3-yl)-5-(1-methyl-1H-pyrazol-4-yl)nicotinamide]			10 to 100 nM
CC(/C=C/c1ccc(C(=O)N2CC[C@@H](NC(=O)c3cc(-c4cnn(C)c4)cnc3N)C2)cc1)N1CCN(C)CC1 (stereo partly drawn) [Example 822, 2-amino-5-(1-methyl-1H-pyrazol-4-yl)-N-((3R)-1-(4-((E)-3-(4-methylpiperazin-1-yl)but-1-en-1-yl)benzoyl)pyrrolidin-3-yl)nicotinamide]			< 10 nM
CN(C)CCCNc1ncc(-c2cnn(C)c2)cc1C(=O)N[C@@H]1CCN(C(=O)c2ccc(-c3ccc(OCCCN(C)C)cc3)cc2)C1 [Example 848, (R)—N-(1-(4′-(3-(dimethylamino)propoxy)-[1,1′-biphenyl]-4-carbonyl)pyrrolidin-3-yl)-2-((3-(dimethylamino)propyl)amino)-5-(1-methyl-1H-pyrazol-4-yl)nicotinamide]			100 to 1000 nM
(R,E)-2-amino-5-(1-methyl-1H-pyrazol-4-yl)-N-(1-(4-(3-oxobut-1-en-1-yl)benzoyl)pyrrolidin-3-yl)nicotinamide [Example 681]			> 1000 nM
